Data taken from PubChem BioAssay (NCI).
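Compound exposure: 48 hours, 5 concentrations, 96-well plates. Here, GI50 denotes the concentration required for 50% inhibition of growth. TGI marks complete inhibition of growth.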

Columns and labels:
Assay in all cases: NCI tumour cell line growth inhibition, 48 h
HL-60(TB) leukemia = system: HL-60(TB) leukemia
LOX IMVI melanoma = system: LOX IMVI melanoma
MOLT-4 leukemia = system: MOLT-4 leukemia
OVCAR-3 ovarian = system: OVCAR-3 ovarian
OVCAR-5 ovarian = system: OVCAR-5 ovarian
SF-539 CNS = system: SF-539 CNS
SNB-75 CNS = system: SNB-75 CNS
SK-MEL-2 melanoma = system: SK-MEL-2 melanoma
BT-549 breast = system: BT-549 breast
DU-145 prostate = system: DU-145 prostate

Row | Structure (SMILES) | TGI (HL-60(TB) leukemia) [µM] | TGI (LOX IMVI melanoma) [µM] | TGI (MOLT-4 leukemia) [µM] | TGI (OVCAR-3 ovarian) [µM] | TGI (OVCAR-5 ovarian) [µM] | TGI (SF-539 CNS) [µM] | TGI (SNB-75 CNS) [µM] | TGI (SK-MEL-2 melanoma) [µM] | GI50 (BT-549 breast) [µM] | TGI (BT-549 breast) [µM] | GI50 (DU-145 prostate) [µM] | TGI (DU-145 prostate) [µM] | GI50 (LOX IMVI melanoma) [µM] | GI50 (MOLT-4 leukemia) [µM] | GI50 (OVCAR-3 ovarian) [µM] | GI50 (OVCAR-5 ovarian) [µM] | GI50 (SF-539 CNS) [µM] | GI50 (SK-MEL-2 melanoma) [µM] | GI50 (SNB-75 CNS) [µM] | GI50 (HL-60(TB) leukemia) [µM]
1 | COC(=O)C1=CO[C@@H](OC2CC(CO)C(O)C(O)C2O)[C@@H]2[C@@H](C)[C@@H](OC(=O)/C=C/c3ccccc3)[C@@H](O)[C@H]12 (stereo not given in full) (tested in a mixture with another compound) | > 100 | > 100 | > 100 | > 100 | > 100 | > 100 | > 100 |  |  |  |  |  |  |  |  |  |  |  |  | 
2 | Nc1ncnc2c1ncn2C1OC(CSCC(F)(F)F)C(O)C1O (stereo not given) | > 100 | > 100 | > 100 | > 100 | > 100 | > 100 | > 100 | > 100 |  |  |  |  |  |  |  |  |  |  |  | 
3 | COc1cc(C)ccc1C(=O)c1ccc(C)cc1OC |  | > 100 | > 100 | 6.55 | > 100 | 20.6 | > 100 | > 100 | 4.23 | > 100 | 3.45 | 83.6 | 7.88 | 7.66 | 2.1 | 7.02 | 2.66 | 2.45 | 3.25 | 
4 | CN(C(=O)/C=C/c1ccccc1)C1C2CN3CCC(O2)C13 (stereo not given) | > 100 | > 100 | > 100 | > 100 | > 100 | > 100 | > 100 | > 100 |  |  |  |  |  |  |  |  |  |  |  | 
5 | Oc1cccc(Nc2nc3ccccc3c3occc23)c1 | 61.7 | 22.4 |  | 12.9 | 25.3 | 29.6 |  | 27.7 | 14.2 | 27.2 | 12.2 | 24.6 | 3.25 |  | 2.09 | 12.7 | 16.1 | 13.2 |  | 5.22
6 | CC(=O)c1c(C(F)(F)F)n([O-])c2ccccc2[n+]1=O |  | 4.58 | > 100 | 2.61 | 3.67 | 5.38 |  | > 100 | 2.48 | 9.06 |  |  | 1.31 | 0.613 | 0.746 | 1.18 | 2 | 4.56 |  | 
7 | O=C1C=CC(=O)c2c1ccc1c3ccccc3n(Cc3ccc([N+](=O)[O-])cc3)c21 | 33.2 |  | 54.2 | > 100 |  | > 100 | > 100 |  |  | > 100 |  | > 100 |  |  |  |  |  |  |  | 
8 | Cc1c(/C=N/NC(=O)c2ccccc2O)c(=O)n(-c2ccccc2)n1C | > 100 | > 100 | > 100 | > 100 |  | > 100 | > 100 | > 100 |  |  |  |  |  |  |  |  |  |  |  | 
9 | COC1=NCc2ccccc2-c2ccccc21 | > 100 | > 100 | > 100 | > 100 |  | > 100 | > 100 | > 100 |  |  |  |  |  |  |  |  |  |  |  | 
10 | O=c1ncccn1[C@@H]1O[C@H](CO)[C@H](O)C1O (stereo not given in full) | > 100 | > 100 | > 100 | > 100 | > 100 | > 100 | > 100 | > 100 |  |  |  |  |  |  |  |  |  |  |  | 
11 | COC(=O)/C(=N\NC(C)(C)C)C(C(=O)OC)C(=O)C(=O)Nc1cc(Cl)ccc1Cl (stereo not given) | > 100 | > 100 | > 100 | > 100 | > 100 | > 100 | > 100 | > 100 |  |  |  |  |  |  |  |  |  |  |  | 
12 | C[C@@H](NC(C#N)c1ccco1)c1ccccc1 (stereo not given in full) | > 100 |  | > 100 | > 100 | > 100 | > 100 | > 100 |  |  | > 100 |  | > 100 |  |  |  |  |  |  |  | 
13 | C[N+](C)(C)CCC(=O)CC[N+](C)(C)C | 17.5 |  | 19.5 | 33.9 |  | 41 | 73.3 | 66.1 |  |  |  |  |  |  |  |  |  |  |  | 
14 | O=C(/C=C/c1ccccc1)Oc1cccc2cccnc12 | > 28.1 | > 100 | > 51.1 | 24.6 | 80.6 | 30.5 | > 71 |  |  |  |  |  |  |  |  |  |  |  |  | 
15 | CC(=O)OCc1c2ccccc2c(C)c2c1cc(F)c1ccccc12 | 67.8 | 46.3 | 32.6 | 57.5 | > 100 | 59.4 | 58.4 | 35.2 |  |  |  |  |  |  |  |  |  |  |  | 
16 | Cn1c(=O)nc2n(-c3ccc(O)cc3)c3ccccc3nc-2c1=O | > 100 |  | > 100 | 64.2 | > 100 | 59.7 | > 100 | > 100 |  |  |  |  |  |  |  |  |  |  |  | 
17 | COc1ccc(-c2noc(C(=O)O)c2-c2cc(OC)c(OC)c(OC)c2)cc1 | 6.41 | > 100 | > 100 | > 100 | > 100 | 20.5 |  | > 100 | 17.9 | > 100 | 3.48 | > 100 | 5.12 | 4.91 | 1.71 | 5.82 | 2.45 | 5.9 |  | 2.19
18 | Cc1cc2c(C)nn(Cc3ccccc3)c2c(C(=O)O)c1C | > 100 | > 100 | > 100 | > 100 | > 100 | > 100 |  | > 100 |  |  |  |  |  |  |  |  |  |  |  | 
19 | CC1=C(C(=O)Nc2ccccc2C)C(c2ccc(Cl)cc2)C(C(=O)Nc2ccccc2C)=C(C)N1 | > 100 | > 100 | > 100 | > 100 | > 100 | > 100 |  | > 100 |  |  |  |  |  |  |  |  |  |  |  | 
20 | O=C1CC(CC(=O)C2CCCCC2=O)C(=O)N1 (stereo not given) | > 100 | > 100 |  | > 100 | > 100 | > 100 | > 100 |  |  |  |  |  |  |  |  |  |  |  |  | 
21 | IC[P+]1(c2ccccc2)CCCC1 | > 100 | > 100 | > 100 | > 100 | > 100 | > 100 | 62.7 | > 100 |  |  |  |  |  |  |  |  |  |  |  | 
22 | Cc1nc(C(N)=O)c(N)n1CCN1CCN(C(=O)CCCCCCCCCCNC2N=CNc3nc[nH]c32)CC1 (stereo not given) | 60.8 | > 100 | 47.6 | > 100 | > 100 | > 100 |  | 44.5 |  |  |  |  |  |  |  |  |  |  |  | 
23 | c1ccc(C2ONC3=NCCN32)cc1 (stereo not given) |  | > 100 | 34.6 | 66.3 | > 100 | > 100 | > 100 | > 100 | 79.6 | > 100 | 62.1 | > 100 | 11.3 | 12.2 | 20.5 | 67.9 | 46.6 | > 100 | 53.4 | 
